# Results from US20060100431A1, “Biologically active compounds” (Amura Therapeutics Limited, priority 2002, published 2006).
# Legend:
# Assay type in all cases: biochemical
# Bovine cathepsin S = molecular target: T1, Bovine cathepsin S (Bos taurus, UniProt P25326); experiment: Cathepsin S peptidase activity assay, bovine enzyme (Ki); conditions: species of cathepsin S not given; read-out: Ki, inhibitors of cathepsin S
# T1 construct: purchased CN Biosciences
# Procedure: Unless otherwise stated, all general chemicals and biochemicals were purchased from either the Sigma Chemical Company, Poole, Dorset, U.K or from Fisher Scientific UK, Loughborough, Leicestershire, U.K. Absorbance assays were carried out in flat-bottomed 96-well plates (Spectra; Greiner Bio-One Ltd., Stonehouse, Gloucestershire, U.K.) using a SpectraMax PLUS384 plate reader (Molecular Devices, Crawley, U.K.). Fluorescence high throughput assays were carried out in either 384-well microtitre plates (Corning Costar 3705 plates, Fisher Scientific) or 96-well ‘U’ bottomed Microfluor W1 microtitre plates (Thermo Labsystems, Ashford, Middlesex, U.K.). Fluorescence assays were monitored using a SpectraMax Gemini fluorescence plate reader (Molecular Devices). For substrates employing either a 7-amino-4-methylcoumarin (AMC) or a 7-amino-4-trifluoromethylcoumarin (AFC) fluorophore, assays were monitored at an excitation wavelength of 365 nm and an emission wavelength of 450 nm and the fluorescence plate reader calibrated with AMC. For substrates employing a 3-amino-benzoyl (Abz) fluorophore, assays were monitored at an excitation wavelength of 310 nm and an emission wavelength of 445 nm; the fluorescence plate reader calibrated with 3-amino-benzamide (Fluka). Unless otherwise indicated, all the peptidase substrates were purchased from Bachem UK, St Helens, Merseyside, UK. Substrates utilizing fluorescence resonance energy transfer methodology (i.e. FRET-based substrates) were synthesized at Incenta Limited using published methods (Atherton & Sheppard, Solid Phase Peptide Synthesis, IRL Press, Oxford, U.K, 1989) and employed Abz (2-aminobenzoyl) as the fluorescence donor and 3-nitro-tyrosine [Tyr(NO2)] as the fluorescence quencher (Meldal, M. and Breddam, K., Anal. Biochem, 195, 141-147, 1991). Hydroxyethylpiperazine ethanesulfonate (HEPES), tris-hydroxylmethyl aminomethane (tris) base, bis-tris-propane and all the biological detergents (e.g. CHAPS, zwittergents, etc.) were purchased from CN Biosciences UK, Beeston, Nottinghamshire, U.K. Glycerol was purchased from Amersham Pharmacia Biotech, Little Chalfont, Buckinghamshire, U.K. Stock solutions of substrate or inhibitor were made up to 10 mM in 100% dimethylsulfoxide (DMSO) (Rathburns, Glasgow, U.K.) and diluted as appropriately required. In all cases the DMSO concentration in the assays was maintained at less than 1% (vol./vol.).
# Assay protocols were based on literature precedent (Table 4; Barrett, A. J., Rawlings, N. D. and Woessner, J. F., 1998, Handbook of Proteolytic Enzymes, Academic Press, London and references therein) and modified as required to suit local assay protocols. Enzyme was added as required to initiate the reaction and the activity, as judged by the change in fluorescence upon conversion of substrate to product, was monitored over time. All assays were carried out at 25±1° C.
# Bovine cathepsin S, human cathepsin L, human cathepsin H and human cathepsin B were obtained from CN Biosciences. Recombinant human cathepsin S, human cathepsin K and human cathepsin X were obtained from Dr. Boris Turk (Josef Stefan Institute, Ljubljana, Slovenia). Unless otherwise stated, all peptidase activity assays were carried out in 10 mM bis-tris-propane (BTP), pH 6.5 containing 1 mM EDTA, 5 mM 2-mercaptoethanol and 1 mM CaCl2. Human cathepsin H activity assays were carried out in 10 mM BTP pH 6.5, 142 mM NaCl2, 1 mM CaCl2, 1 mM EDTA, 1 mM DTT, 0.035 mM Zwittergent 3-16. Human cathepsin K assays were carried out in 100 mM sodium acetate; pH 5.5 containing 20 mM L-cysteine and 1 mM EDTA (Bossard, M. J., et. al., J. Biol. Chem., 21, 12517-12524, 1996). Human cathepsin X assays were carried out in 100 mM sodium acetate; pH 5.5 containing 20 mM L-cysteine; 0.05% (w/v) Brij 35 and 1 mM EDTA (Santamaria, I., et. al., J. Biol. Chem., 273, 16816-16823, 1998; Klemencic, J, et al., Eur. J. Biochem., 267, 5404-5412, 2000).
# Wild-type cruzipain = Wild-type cruzipain (Trypanosoma cruzi, UniProt P25779); experiment: Trypanosoma cruzi cruzipain peptidase activity assay (Ki); conditions: read-out: Ki, inhibitors of cruzain and cruzipains
# Chain of Wild-type cruzipain (P25779 whole entry): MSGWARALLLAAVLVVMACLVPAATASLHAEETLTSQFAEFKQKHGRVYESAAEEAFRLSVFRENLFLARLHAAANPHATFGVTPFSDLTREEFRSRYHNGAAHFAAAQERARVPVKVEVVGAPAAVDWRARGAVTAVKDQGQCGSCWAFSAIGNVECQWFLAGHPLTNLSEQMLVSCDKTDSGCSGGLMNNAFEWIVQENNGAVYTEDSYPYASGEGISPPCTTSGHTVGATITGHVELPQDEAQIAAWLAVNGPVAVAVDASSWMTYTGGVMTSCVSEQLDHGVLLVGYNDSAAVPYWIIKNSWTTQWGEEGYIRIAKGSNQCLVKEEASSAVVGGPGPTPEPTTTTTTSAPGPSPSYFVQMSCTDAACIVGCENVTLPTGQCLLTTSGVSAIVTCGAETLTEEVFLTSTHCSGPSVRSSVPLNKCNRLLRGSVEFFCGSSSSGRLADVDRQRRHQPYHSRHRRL
# How it was run: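 Native cruzipain from T. cruzi Dm28 epimastigotes, 2.5 nM, in 100 mM sodium phosphate pH 6.75 with 1 mM EDTA and 10 mM L-cysteine, 25 °C, DMSO <1%. Rates taken from continuous fluorogenic substrate read; Ki by regression assuming reversible pure-competitive inhibition.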
# human cathepsin L = molecular target: T2, human cathepsin L (Homo sapiens, UniProt P07711); experiment: Cathepsin L peptidase activity assay (Ki); conditions: read-out: Ki, inhibitors of cathepsin L
# T2 construct: purchased CN Biosciences
# T2 sequence (P07711 114-333): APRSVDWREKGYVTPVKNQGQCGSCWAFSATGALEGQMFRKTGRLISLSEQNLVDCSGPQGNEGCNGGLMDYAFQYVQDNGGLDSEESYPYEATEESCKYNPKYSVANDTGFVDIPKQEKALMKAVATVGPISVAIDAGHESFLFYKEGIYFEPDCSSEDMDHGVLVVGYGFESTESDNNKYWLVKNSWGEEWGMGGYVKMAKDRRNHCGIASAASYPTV
# How it was run: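 Run at 25±1° C with DMSO under 1%: buffer was 10 mM BTP pH 6.5 containing 1 mM EDTA, 1 mM CaCl2 and 5 mM 2-mercaptoethanol. Enzyme (1 nM cathepsin L) was added last to start hydrolysis of Ac-Phe-Arg-AMC held at KM^app (~20 μM), followed kinetically by fluorescence at 365/450 nm.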
# CPB2.8ΔCTE = molecular target: T3, CPB2.8ΔCTE (Leishmania mexicana, UniProt P36400); experiment: Leishmania mexicana cysteine protease B (CPB) peptidase activity assay (Ki); conditions: Ki, inhibitors of Leismania mexicana CPB protease
# T3 construct: Wild-type recombinant CPB without the C-terminal extention (i.e. CPB2.8ΔCTE); Dr. Jeremy Mottram (Wellcome Centre for Molecular Parasitology, University of Glasgow)
# T3 sequence (P36400 126-343, stated change not applied): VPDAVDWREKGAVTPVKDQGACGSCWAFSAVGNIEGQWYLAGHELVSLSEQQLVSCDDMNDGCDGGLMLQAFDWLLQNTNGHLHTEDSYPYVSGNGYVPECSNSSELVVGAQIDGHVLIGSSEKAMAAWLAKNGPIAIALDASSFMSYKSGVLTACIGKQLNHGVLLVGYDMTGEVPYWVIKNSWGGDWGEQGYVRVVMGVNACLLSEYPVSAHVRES
# How it was run: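 Apparent Ki was derived by regression of activity against inhibitor concentration, assuming pure-competitive reversible binding. Reaction: 0.25 nM CPB lacking the C-terminal extension, pH 5.5 acetate buffer (1 mM EDTA, 200 mM NaCl, 10 mM DTT), 25 °C, followed by continuous substrate fluorescence.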
# human cathepsin B = molecular target: T4, human cathepsin B (Homo sapiens, UniProt P07858); experiment: Cathepsin B peptidase activity assay (Ki); conditions: read-out: Ki, inhibitors of cathepsin B
# T4 construct: purchased CN Biosciences
# How it was run: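 Buffer: 10 mM bis-tris-propane pH 6.5, 1 mM EDTA, 5 mM 2-mercaptoethanol, 1 mM CaCl2; DMSO <1%. Ki assumed reversible, pure-competitive, from Ki^app=Ki(1+[So]/KM^app) by non-linear regression.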
# T1 sequence (P25326 115-331): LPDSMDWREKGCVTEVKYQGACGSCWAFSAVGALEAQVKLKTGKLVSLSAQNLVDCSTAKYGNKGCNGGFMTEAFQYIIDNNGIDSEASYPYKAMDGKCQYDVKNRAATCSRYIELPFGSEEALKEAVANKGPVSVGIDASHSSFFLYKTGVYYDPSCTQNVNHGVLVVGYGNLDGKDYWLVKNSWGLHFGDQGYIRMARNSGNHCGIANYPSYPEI
Ki (Bovine cathepsin S) [µM],Ki (Wild-type cruzipain) [µM],SMILES,Ki (human cathepsin L) [µM],Ki (CPB2.8ΔCTE) [µM],Ki (human cathepsin B) [µM]
< 5,–,"O=C(N[C@@H](CC1CC1)C(=O)N1CC[C@@H]2[C@H]1C(=O)CN2C(=O)c1ccccc1)c1ccsc1 [Example 187, (3aR,6aS)-Thiophene-3-carboxylic acid [(1S)-2-(4-benzoyl-6-oxo-hexahydro-pyrrolo[3,2-b]pyrrole-1-yl)-1-cyclopropylmethyl-2-oxo-ethyl]-amide]",–,–,–
< 5,< 5,"CS(=O)(=O)c1ccccc1C(=O)N1CC(=O)[C@@H]2[C@H]1CCN2C(=O)[C@H](Cc1ccc(O)cc1)NC(=O)c1cccc(Br)c1 [Example 303, (3aR,6aS)-3-Bromo-N-{(1S)-1-(4-hydroxy-benzyl)-2-[4-(2-methanesulfonyl-benzoyl)-6-oxo-hexahydro-pyrrolo[3,2-b]pyrrole-1-yl]-2-oxo-ethyl}-benzamide]",–,–,–
< 5,< 5,"O=C(N[C@@H](Cc1ccc(O)cc1)C(=O)N1CC[C@@H]2[C@H]1C(=O)CN2C(=O)c1ccccc1)c1ccc2ncsc2c1 [Example 317, (3aR,6aS)-Benzothiazole-6-carboxylic acid [(1S)-2-(4-benzoyl-6-oxo-hexahydro-pyrrolo[3,2-b]pyrrole-1-yl)-1-(4-hydroxy-benzyl)-2-oxo-ethyl]-amide]",–,–,–
< 5,< 5,"O=C(N[C@@H](Cc1ccc(O)cc1)C(=O)N1CC[C@@H]2[C@H]1C(=O)CN2C(=O)c1ccccc1)c1cccc(Cl)c1 [Example 334, (3aR,6aS)-N-[(1S)-2-(4-Benzoyl-6-oxo-hexahydro-pyrrolo[3,2-b]pyrrol-1-yl)-1-(4-hydroxy-benzyl)-2-oxo-ethyl]-3-chloro-benzamide]",–,–,–
< 5,< 5,"O=C(N[C@@H](Cc1ccc(O)cc1)C(=O)N1CC[C@@H]2[C@H]1C(=O)CN2C(=O)c1ccccc1)c1cccc(F)c1 [Example 335, (3aR,6aS)-N-[(1S)-2-(4-Benzoyl-6-oxo-hexahydro-pyrrolo[3,2-b]pyrrol-1-yl)-1-(4-hydroxy-benzyl)-2-oxo-ethyl]-3-fluoro-benzamide]",–,–,–
< 5,–,"CC(C)C[C@H](NC(=O)c1cccc(Br)c1)C(=O)N1CC[C@@H]2[C@H]1C(=O)CN2C(=O)c1ccccc1 [Example 340, (3aR,6aS)-N-[(1S)-1-(4-Benzoyl-6-oxo-hexahydro-pyrrolo[3,2-b]pyrrole-1-carbonyl)-3-methyl-butyl]-3-bromo-benzamide]",–,–,–

# Second part, the molecule before the results:
SMILES,Ki (Bovine cathepsin S) [µM],Ki (Wild-type cruzipain) [µM],Ki (human cathepsin L) [µM],Ki (CPB2.8ΔCTE) [µM],Ki (human cathepsin B) [µM]
"CC(C)C[C@H](NC(=O)c1ccc2ccccc2n1)C(=O)N1CC[C@@H]2[C@H]1C(=O)CN2C(=O)c1ccccc1 [Example 8, (3aR,6aS)-Quinoline-2-carboxylic acid [(1S)-1-(4-benzoyl-6-oxo-hexahydro-pyrrolo[3,2-b]pyrrole-1-carbonyl)-3-methyl-butyl]-amide]",< 5,< 5,< 5,–,–
"CC(C)C[C@H](NC(=O)c1cc2ccccc2o1)C(=O)N1CC[C@@H]2[C@H]1C(=O)CN2C(=O)c1ccccc1 [Example 9, (3aR,6aS)-Benzofuran-2-carboxylic acid [(1S)-1-(4-benzoyl-6-oxo-hexahydropyrrolo[3,2-b]pyrrole-1-carbonyl)-3-methyl-butyl]-amide]",< 5,< 5,< 5,–,–
"CC(C)C[C@H](NC(=O)c1cccc(Oc2ccccc2)c1)C(=O)N1CC[C@@H]2[C@H]1C(=O)CN2C(=O)c1ccccc1 [Example 13, (3aR,6aS)-N-[(1S)-1-(4-Benzoyl-6-oxo-hexahydro-pyrrolo[3,2-b]pyrrole-1-carbonyl)-3-methyl-butyl]-3-phenoxy-benzamide]",< 5,< 5,–,< 5,–
"CC(C)C[C@H](NC(=O)c1cnc2ccccc2n1)C(=O)N1CC[C@@H]2[C@H]1C(=O)CN2C(=O)c1cccnc1 [Example 19, (3aR,6aS)-Quinoxaline-2-carboxylic acid {(1S)-3-methyl-1-[6-oxo-4-(pyridine-3-carbonyl)-hexahydro-pyrrolo[3,2-b]pyrrole-1-carbonyl]-butyl}-amide]",< 5,< 5,–,–,–
"CC(C)C[C@H](NC(=O)c1cccc(Oc2ccccc2)c1)C(=O)N1CC[C@@H]2[C@H]1C(=O)CN2C(=O)c1cccnc1 [Example 20, (3aR,6aS)-N-{(1S)-3-Methyl-1-[6-oxo-4-(pyridine-3-carbonyl)-hexahydro-pyrrolo[3,2-b]pyrrole-1-carbonyl]-butyl}-3-phenoxy-benzamide]",< 5,< 5,–,< 5,–
"CC(C)C[C@H](NC(=O)c1ccc(N(C)C)cc1)C(=O)N1CC[C@@H]2[C@H]1C(=O)CN2C(=O)C1CCCCC1 [Example 104, (3aR,6aS)-N-[(1S)-1-(4-Cyclohexanecarbonyl-6-oxo-hexahydro-pyrrolo[3,2-b]pyrrole-1-carbonyl)-3-methyl-butyl]-4-dimethylamino-benzamide]",–,< 5,< 5,< 5,< 5
"CC(C)C[C@H](NC(=O)c1cccc(CN)c1)C(=O)N1CC[C@@H]2[C@H]1C(=O)CN2S(=O)(=O)c1ccccc1 [Example 123, (3aR,6aS)-3-Aminomethyl-N-[(1S)-1-(4-benzenesulfonyl-6-oxo-hexahydro-pyrrolo[3,2-b]pyrrole-1-carbonyl)-3-methyl-butyl]-benzamide]",< 5,–,–,–,–
"CC(C)C[C@H](NC(=O)C(c1ccccc1)c1ccccc1)C(=O)N1CC[C@@H]2[C@H]1C(=O)CN2C(=O)c1csc2ccccc12 [Example 271, (3aR,6aS)-N-{(1S)-1-[4-(Benzo[b]thiophene-3-carbonyl)-6-oxo-hexahydro-pyrrolo[3,2-b]pyrrole-1-carbonyl]-3-methyl-butyl}-2,2-diphenyl-acetamide]",–,< 5,< 5,< 5,< 5
"O=C(N[C@@H](CC1CCCCC1)C(=O)N1CC[C@@H]2[C@H]1C(=O)CN2C(=O)c1ccccc1)c1ccc2ncsc2c1 [Example 286, (3aR,6aS)-Benzothiazole-6-carboxylic acid [(1S)-2-(4-benzoyl-6-oxo-hexahydro-pyrrolo[3,2-b]pyrrole-1-yl)-1-cyclohexylmethyl-2-oxo-ethyl]-amide]",–,< 5,< 5,< 5,< 5
